Experiments:
Type in all cases: cell-based
[1] = target: T1, human EDG8 (S1PR5) receptor (Homo sapiens, UniProt Q9H228); assay: Aequorin assay, agonist potency, CHO-A21-EDG8#12 cells; settings: agonist mode, aequorin luminescence; read-out: S1P5 EC50 range #
T1 construct: carries the transgenes human EDG8 (S1PR5) receptor (Acession number NP_110387.1); expressed in transfected cells; host or cells: CHO-A21-EDG8#12 (CHO clone co-expressing mitochondrial aequorin and chimaeric Gaqi5)
In short: (§1)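 CHO cells coexpressing receptor, mitochondrial aequorin and Gαqi5 (S1P3 pool: GNA16) were loaded overnight at RT with 5 μM coelenterazine h in 0.1% fatty-acid-free BSA buffer. Cells were injected onto compound, luminescence recorded 90 s and integrated, normalised to digitonin or 20 μM ATP; sigmoidal fit.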

[2] = target: T2, human EDG1 (S1PR1) receptor (Homo sapiens, UniProt P21453); assay: Aequorin assay, agonist potency, CHO-A21-Edg1#17 cells; settings: agonist mode, aequorin luminescence; read-out: S1P1 EC50
T2 construct: expressed in transfected cells; host or cells: CHO-A21-Edg1#17 (CHO clone co-expressing mitochondrial aequorin and chimaeric Gaqi5)
T2 sequence (P21453 whole entry): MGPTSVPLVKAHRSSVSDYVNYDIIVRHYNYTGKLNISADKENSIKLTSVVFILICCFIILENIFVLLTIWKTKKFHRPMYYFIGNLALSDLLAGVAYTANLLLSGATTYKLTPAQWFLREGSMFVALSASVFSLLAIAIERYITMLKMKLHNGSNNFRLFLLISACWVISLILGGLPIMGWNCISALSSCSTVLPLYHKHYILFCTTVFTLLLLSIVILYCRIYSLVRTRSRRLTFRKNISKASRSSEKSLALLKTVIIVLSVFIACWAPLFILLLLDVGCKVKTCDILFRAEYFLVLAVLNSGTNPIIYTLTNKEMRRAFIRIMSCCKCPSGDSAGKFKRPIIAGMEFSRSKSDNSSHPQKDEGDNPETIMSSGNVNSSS
In short: as §1

S1P4 = target: T3, S1P4 (Homo sapiens, UniProt O95977); assay: Aequorin assay, agonist potency, S1P4; settings: agonist mode, aequorin luminescence
T3 sequence (O95977 1-384): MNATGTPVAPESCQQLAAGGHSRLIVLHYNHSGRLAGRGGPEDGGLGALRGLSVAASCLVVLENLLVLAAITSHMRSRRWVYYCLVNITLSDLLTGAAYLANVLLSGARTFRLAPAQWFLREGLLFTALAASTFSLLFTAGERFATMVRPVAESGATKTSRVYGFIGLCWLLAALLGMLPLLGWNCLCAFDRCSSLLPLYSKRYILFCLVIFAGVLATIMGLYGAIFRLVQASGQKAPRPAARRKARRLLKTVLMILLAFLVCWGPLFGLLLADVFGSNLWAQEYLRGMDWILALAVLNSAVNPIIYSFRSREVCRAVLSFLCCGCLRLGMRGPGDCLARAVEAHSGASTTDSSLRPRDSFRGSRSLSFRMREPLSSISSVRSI
In short: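 Aequorin luminescence read over 90 s after adding coelenterazine h–loaded cells (5 μM, overnight, RT) to test compound in phenol red-free DMEM/F12 buffer containing 0.1% fatty acid-free BSA. Responses integrated, scaled to the 100% signal from 100 μM digitonin or 20 μM ATP, and fitted to a sigmoidal dose-response model.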

T1 sequence (Q9H228 whole entry): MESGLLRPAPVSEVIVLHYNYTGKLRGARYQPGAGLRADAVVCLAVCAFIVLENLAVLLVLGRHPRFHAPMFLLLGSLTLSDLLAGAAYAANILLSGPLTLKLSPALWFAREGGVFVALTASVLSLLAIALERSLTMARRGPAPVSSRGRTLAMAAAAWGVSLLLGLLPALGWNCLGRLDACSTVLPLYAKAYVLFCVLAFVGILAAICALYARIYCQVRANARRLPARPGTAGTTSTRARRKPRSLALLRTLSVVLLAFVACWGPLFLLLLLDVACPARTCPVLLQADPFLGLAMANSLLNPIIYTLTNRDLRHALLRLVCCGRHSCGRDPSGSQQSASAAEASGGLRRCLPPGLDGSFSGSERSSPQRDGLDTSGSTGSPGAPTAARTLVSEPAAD

EC50 [1]	EC50 [2]	EC50 (S1P4)	Structure (SMILES)
1000 to 10000 nM	> 1000 nM	> 1000 nM	COc1ccc(COc2ccc3c(c2)CC2(C3)CN(CC3(C(=O)O)CC3)C2)cc1 [Example 139, 1-((5′-((4-methoxybenzyl)oxy)-1′,3′-dihydrospiro[azetidine-3,2′-inden]-1-yl)methyl)cyclopropanecarboxylic acid]
1000 to 10000 nM	> 1000 nM	> 1000 nM	O=C(O)C1(CN2CC3(Cc4ccc(OCc5ccccc5F)cc4C3)C2)CC1 [Example 140, 1-((5′-((2-fluorobenzyl)oxy)-1′,3′-dihydrospiro[azetidine-3,2′-inden]-1-yl)methyl)cyclopropanecarboxylic acid]
1000 to 10000 nM	> 1000 nM	< 1000 nM	O=C(O)C1(CN2CC3(Cc4ccc(OCc5ccccc5Cl)cc4C3)C2)CC1 [Example 141, 1-((5′-((2-chlorobenzyl)oxy)-1′,3′-dihydrospiro[azetidine-3,2′-inden]-1-yl)methyl)cyclopropanecarboxylic acid]
1000 to 10000 nM	> 1000 nM	> 1000 nM	N#Cc1ccc(COc2ccc3c(c2)CC2(C3)CN(CC3(C(=O)O)CC3)C2)cc1 [Example 142, 1-((5′-((4-cyanobenzyl)oxy)-1′,3′-dihydrospiro[azetidine-3,2′-inden]-1-yl)methyl)cyclopropanecarboxylic acid]
1000 to 10000 nM	> 1000 nM	< 1000 nM	O=C(O)C1(CN2CC3(Cc4ccc(OCc5ccc6c(c5)OCO6)cc4C3)C2)CC1 [Example 143, 1-((5′-(benzo[d][1,3]dioxol-5-ylmethoxy)-1′,3′-dihydrospiro[azetidine-3,2′-inden]-1-yl)methyl)cyclopropanecarboxylic acid]
1000 to 10000 nM	> 1000 nM	> 1000 nM	O=C(O)C1(CN2CC3(Cc4ccc(OCCc5c[nH]c6ccccc56)cc4C3)C2)CC1 [Example 144, 1-((5′-(2-(1H-indol-3-yl)ethoxy)-1′,3′-dihydrospiro[azetidine-3,2′-inden]-1-yl)methyl)cyclopropanecarboxylic acid]
1000 to 10000 nM	> 1000 nM	< 1000 nM	O=C(O)C1(CN2CC3(Cc4ccc(OCCOc5ccccc5Cl)cc4C3)C2)CC1 [Example 145, 1-((5′-(2-(2-chlorophenoxy)ethoxy)-1′,3′-dihydrospiro[azetidine-3,2′-inden]-1-yl)methyl)cyclopropanecarboxylic acid]
1000 to 10000 nM	> 1000 nM	> 1000 nM	Cc1cccc(CCCOc2ccc3c(c2)CC2(C3)CN(CC3(C(=O)O)CC3)C2)n1 [Example 146, 1-((5′-(3-(6-methylpyridin-2-yl)propoxy)-1′,3′-dihydrospiro[azetidine-3,2′-inden]-1-yl)methyl)cyclopropanecarboxylic acid]
100 to 1000 nM	> 1000 nM	< 1000 nM	N#Cc1cccc(COc2ccc3c(c2)CC2(C3)CN(CC3(C(=O)O)CC3)C2)c1 [Example 147, 1-((5′-((3-cyanobenzyl)oxy)-1′,3′-dihydrospiro[azetidine-3,2′-inden]-1-yl)methyl)cyclopropanecarboxylic acid]
1000 to 10000 nM	> 1000 nM	< 1000 nM	O=C(O)C1(CN2CC3(Cc4ccc(OCCc5cccc(F)c5)cc4C3)C2)CC1 [Example 148, 1-((5′-(3-fluorophenethoxy)-1′,3′-dihydrospiro[azetidine-3,2′-inden]-1-yl)methyl)cyclopropanecarboxylic acid]
1000 to 10000 nM	> 1000 nM	> 1000 nM	O=C(O)CN1CC2(Cc3ccc(C#Cc4ccc(Cl)cc4)cc3O2)C1 [Example 149, 2-(6′-((4-chlorophenyl)ethynyl)-3′H-spiro[azetidine-3,2′-benzofuran]-1-yl)acetic acid]
≤ 10 nM	> 1000 nM	< 1000 nM	O=C(O)CN1CC2(Cc3ccc(C#CC4CCCCC4)cc3O2)C1 [Example 150, 2-(6′-(cyclohexylethynyl)-3′H-spiro[azetidine-3,2′-benzofuran]-1-yl)acetic acid]
≤ 10 nM	> 1000 nM	< 1000 nM	O=C(O)CN1CC2(Cc3ccc(C#Cc4ccccc4)cc3O2)C1 [Example 151, 2-(6′-(phenylethynyl)-3′H-spiro[azetidine-3,2′-benzofuran]-1-yl)acetic acid]
≤ 10 nM	> 1000 nM	< 1000 nM	O=C(O)CN1CC2(Cc3ccc(C#Cc4cccc(Cl)c4)cc3O2)C1 [Example 152, 2-(6′-((3-chlorophenyl)ethynyl)-3′H-spiro[azetidine-3,2′-benzofuran]-1-yl)acetic acid]
≤ 10 nM	> 1000 nM	< 1000 nM	O=C(O)CN1CC2(Cc3ccc(C#Cc4ccccc4Cl)cc3O2)C1 [Example 153, 2-(6′-((2-chlorophenyl)ethynyl)-3′H-spiro[azetidine-3,2′-benzofuran]-1-yl)acetic acid]
10 to 100 nM	< 1000 nM	> 1000 nM	CCOc1ccc(C#Cc2ccc3c(c2)OC2(C3)CN(CC(=O)O)C2)cc1 [Example 154, 2-(6′-((4-ethoxyphenyl)ethynyl)-3′H-spiro[azetidine-3,2′-benzofuran]-1-yl)acetic acid]
100 to 1000 nM	> 1000 nM	< 1000 nM	CC1CCC(C#Cc2ccc3c(c2)OC2(C3)CN(CC(=O)O)C2)CC1 (stereo not drawn) [Example 155, 2-(6′-((4-methylcyclohexyl)ethynyl)-3′H-spiro[azetidine-3,2′-benzofuran]-1-yl)acetic acid]
≤ 10 nM	> 1000 nM	< 1000 nM	CCc1cccc(Cl)c1COc1ccc2c(c1)OC1(C2)CN(CC2(C(=O)O)CC2)C1 [Example 156, 1-((6′-((2-chloro-6-ethylbenzyl)oxy)-3′H-spiro[azetidine-3,2′-benzofuran]-1-yl)methyl)cyclopropanecarboxylic acid]
≤ 10 nM	> 1000 nM	< 1000 nM	CCc1cccc(Cl)c1COc1ccc2c(c1)OC1(C2)CN(CC(C)CC(=O)O)C1 (stereo not drawn) [Example 157, 4-(6′-((2-chloro-6-ethylbenzyl)oxy)-3′H-spiro[azetidine-3,2′-benzofuran]-1-yl)-3-methylbutanoic acid]
≤ 10 nM	< 1000 nM	< 1000 nM	CCc1cccc(Cl)c1COc1ccc2c(c1)OC1(C2)CN(CC(=O)O)C1 [Example 158, 2-(6′-((2-chloro-6-ethylbenzyl)oxy)-3′H-spiro[azetidine-3,2′-benzofuran]-1-yl)acetic acid]

From US20200055817A1 (AbbVie Deutschland GmbH & Co. KG, priority 2016, published 2020)
